# Laboratory results published in US20040235939A1, “Synthesis of peloruside a and analogs thereof for use as antitumor agents” (priority 2003, published 2004).
# Where two headings read alike, the source gives them in different places.
# Legend:
# Hep-G2 = assay: SRB cytotoxicity assay, Hep-G2; type: cell-based; conditions: Homo sapiens, Hep G2, Liver, read-out: GI50
# Procedure: (§1) Cells were treated on Days 1, 3, 5, and 7 with 5 μL of media, vehicle, or drug. Peloruside A was resuspended in 0.1% DMSO and added to wells to a final concentration of 0.01, 0.1, 1, 10 or 100 nM. Taxol® (Sigma-Aldrich) was resuspended in 0.1% ethanol and added to cells to a final concentration of 0.1, 1, 10, 100, or 1000 nM.
# (§2) The amount of surviving cells was measured using the sulforhodamine B (SRB) assay as previously described (Skehan et al., New colorimetric cytotoxicity assay for anticancer-drug screening. J. Natl. Cancer Inst., 1990. 82(13): p. 1107-12). Cells were fixed on Days 5, 7, and 9 (representing 4, 6, and 8 days of exposure to drug or control, respectively) with 50% (w/v) trichloroacetic acid for 1 hour at 4° C., rinsed thoroughly with water, and dried overnight. The dried cells were stained with 4% sulforhodamine B in 1% acetic acid, rinsed thoroughly and dried overnight. The bound dye was resuspended in 10 mM Tris and the absorbance was read at 492 nm. Percent growth inhibition (GI) was calculated as follows: %GI=(1−(absorbance sample/absorbance vehicle))×100. The absorbance value for each drug concentration and control represents the average of 6 replicates. The %GI was plotted against the log[drug] to generate the growth curves. The concentration of drug required to inhibit growth by 50% (GI50) was calculated for each time point.
# LoVo = assay: SRB cytotoxicity assay, LoVo; type: cell-based; conditions: Homo sapiens, Colon, read-out: GI50
# Procedure: as §1, §2
# A498 = assay: SRB cytotoxicity assay, A498; type: cell-based; conditions: Homo sapiens, A498, Renal, read-out: GI50
# Procedure: as §1, §2
# CAKI-1 = assay: SRB cytotoxicity assay, CAKI-1; type: cell-based; conditions: Homo sapiens, CAK1-1, Renal, read-out: GI50
# Procedure: as §1, §2
# [1] = system: BSC-1 (Monkey Kidney epithelial) cells; assay: Immunofluorescent staining of tubulin in BSC-1 cells; type: cell-based; conditions: 200 nM of Taxol® or 50 nM of Peloruside A
# ptx22 cells = assay: Cell Titer-Glo cell viability, Taxol-resistant ptx22 cells; conditions: Homo sapiens, 48 h, read-out: concentration to reduce cell viability to approximately 50%
# Procedure: (§3) These cell lines have specific amino acid mutations in tubulin that prevent Taxol®-binding. […] Synthetic (+)-Peloruside A was used for the present example.
# (§4) 1A9, ptx10 and ptx22 cells were plated in 96-well plates to approximately 50% confluency. On the next day, Taxol® or Peloruside A was added to each well and incubated for 48 hours. A final concentration of 1, 2, 3, 4, 5, 8, 10, 20, 30, 50, 100, 300, 500, or 1000 nM of Taxol® was used. A final concentration of 10, 20, 30, 40, 50 or 70 nM of Peloruside A was used. Cell viability was measured using the Cell Titer-Glo Luminescent Cell Viability Assay (Promega). FIGS. 80-82 show bar graphs of cell viability at various concentrations of Peloruside A and Taxol®.
# NCI-H1395 = assay: SRB cytotoxicity assay, NCI-H1395; type: cell-based, human; conditions: NCl-H1395, Lung
# Procedure: as §1, §2
# SK-OV-3 = assay: SRB cytotoxicity assay, SK-OV-3; type: cell-based; conditions: Homo sapiens, SK-OV-3, Ovarian, read-out: GI50
# Procedure: as §1, §2
# NCI-H2887 = assay: SRB cytotoxicity assay, NCI-H2887; type: cell-based, human; conditions: NCl-H2887, Lung
# Procedure: as §1, §2
# SK-MEL-5 = assay: SRB cytotoxicity assay, SK-MEL-5; type: cell-based; conditions: Homo sapiens, SK-MEL-5, Melanoma, read-out: GI50
# Procedure: as §1, §2
# ptx10 cells = assay: Cell Titer-Glo cell viability, Taxol-resistant ptx10 cells; conditions: Homo sapiens, PTX10, 48 h, read-out: concentration to reduce cell viability to approximately 50%
# Procedure: as §3, §4
# SK-HEP-1 = assay: SRB cytotoxicity assay, SK-HEP-1; type: cell-based; conditions: Homo sapiens, SK-HEP-1, Liver, read-out: GI50
# Procedure: as §1, §2
# HCT-116 = assay: SRB cytotoxicity assay, HCT-116; type: cell-based; conditions: Homo sapiens, HCT-116, Colon, read-out: GI50
# Procedure: as §1, §2
# NCI-H460 = assay: SRB cytotoxicity assay, NCI-H460; type: cell-based; conditions: Homo sapiens, NCl-H460, Lung, read-out: GI50
# Procedure: as §1, §2
# Capan-1 = assay: SRB cytotoxicity assay, Capan-1; type: cell-based; conditions: Homo sapiens, Capan-1, Pancreas, read-out: GI50
# Procedure: as §1, §2
# Mia PaCa-2 = assay: SRB cytotoxicity assay, Mia PaCa-2; type: cell-based; conditions: Homo sapiens, Mia PaCa-2, Pancreas, read-out: GI50
# Procedure: as §1, §2
# DU-145 = assay: SRB cytotoxicity assay, DU-145; type: cell-based; conditions: Homo sapiens, DU-145, Prostate, read-out: GI50
# Procedure: as §1, §2
# HCT-15 = assay: SRB cytotoxicity assay, HCT-15; type: cell-based; conditions: Homo sapiens, HCT-15, Colon, read-out: GI50
# Procedure: as §1, §2
# SK-MEL-28 = assay: SRB cytotoxicity assay, SK-MEL-28; type: cell-based; conditions: Homo sapiens, SK-MEL-28, Melanoma, read-out: GI50
# Procedure: as §1, §2
# BT-549 = assay: SRB cytotoxicity assay, BT-549; type: cell-based; conditions: Homo sapiens, BT-549, Breast, read-out: GI50
# Procedure: as §1, §2
# PC-3 = assay: SRB cytotoxicity assay, PC-3; type: cell-based; conditions: Homo sapiens, PC-3, Prostate, read-out: GI50
# Procedure: as §1, §2
structure (smiles),measurement,setting,value
"CC(=O)O[C@H]1C(=O)[C@@]2(C)[C@H]([C@H](OC(=O)c3ccccc3)[C@]3(O)C[C@H](OC(=O)[C@H](O)[C@@H](NC(=O)c4ccccc4)c4ccccc4)C(C)=C1C3(C)C)[C@]1(OC(C)=O)CO[C@@H]1C[C@@H]2O [Paclitaxel, paclitaxel, reference compound]",GI50,"Hep-G2; HepG2, 96 h, 4 Days",2.82 nM
same,GI50,"Hep-G2; HepG2, 144 h, 6 Days",0.47 nM
same,GI50,"Hep-G2; HepG2, 192 h, 8 Days",0.63 nM
same,GI50,"LoVo; 96 h, 4 Days",1.91 nM
same,GI50,"LoVo; 144 h, 6 Days",1.95 nM
same,GI50,"LoVo; 192 h, 8 Days",3.92 nM
same,GI50,"A498; 96 h, 4 Days",46.1 nM
same,GI50,"A498; 144 h, 6 Days",9.75 nM
same,GI50,"A498; 192 h, 8 Days",7.57 nM
same,GI50,"CAKI-1; CAKI-1, 96 h, 4 Days",4.52 nM
same,GI50,"CAKI-1; CAKI-1, 144 h, 6 Days",1.21 nM
same,GI50,"CAKI-1; CAKI-1, 192 h, 8 Days",1.17 nM
same,formation of a bipolar spindle,[1],the bipolar spindle does not form
same,IC50,ptx22 cells,> 100 nM
same,GI50,"NCI-H1395; Homo sapiens, NCI-H1395, 144 h, 6 Days, read-out: GI50",6.81 nM
same,GI50,"NCI-H1395; Homo sapiens, NCI-H1395, 192 h, 8 Days, read-out: GI50",5.27 nM
same,GI50,NCI-H1395; 4 Days,4 Days: Resistant
same,GI50,"SK-OV-3; 144 h, 6 Days",2.21 nM
same,GI50,"SK-OV-3; 192 h, 8 Days",1.07 nM
same,GI50,"NCI-H2887; Homo sapiens, NCI-H2887, 144 h, 6 Days, read-out: GI50",643 nM
same,GI50,"NCI-H2887; Homo sapiens, NCI-H2887, 192 h, 8 Days, read-out: GI50",6.16 nM
same,GI50,NCI-H2887; 4 Days,4 Days: Resistant
same,GI50,"SK-MEL-5; 96 h, 4 Days",0.82 nM
same,GI50,"SK-MEL-5; 144 h, 6 Days",1 nM
same,GI50,"SK-MEL-5; 192 h, 8 Days",0.27 nM
same,IC50,ptx10 cells,> 100 nM
same,GI50,"SK-HEP-1; SK-HEP1, 96 h, 4 Days",5.6 nM
same,GI50,"SK-HEP-1; SK-HEP1, 144 h, 6 Days",2.85 nM
same,GI50,"SK-HEP-1; SK-HEP1, 192 h, 8 Days",0.45 nM
same,GI50,"HCT-116; 96 h, 4 Days",1 nM
same,GI50,"HCT-116; 144 h, 6 Days",0.58 nM
same,GI50,"HCT-116; 192 h, 8 Days",0.3 nM
same,GI50,"NCI-H460; NCI-H460, 96 h, 4 Days",0.25 nM
same,GI50,"NCI-H460; NCI-H460, 144 h, 6 Days",0.57 nM
same,GI50,"NCI-H460; NCI-H460, 192 h, 8 Days",0.56 nM
same,GI50,"Capan-1; 96 h, 4 Days",5.68 nM
same,GI50,"Capan-1; 144 h, 6 Days",0.91 nM
same,GI50,"Capan-1; 192 h, 8 Days",1.43 nM
same,GI50,"Mia PaCa-2; 96 h, 4 Days",0.73 nM
same,GI50,"Mia PaCa-2; 144 h, 6 Days",0.53 nM
same,GI50,"Mia PaCa-2; 192 h, 8 Days",0.27 nM
same,GI50,"DU-145; 96 h, 4 Days",0.54 nM
same,GI50,"DU-145; 144 h, 6 Days",0.53 nM
same,GI50,"DU-145; 192 h, 8 Days",0.49 nM
same,GI50,"HCT-15; 96 h, 4 Days",49.1 nM
same,GI50,"HCT-15; 144 h, 6 Days",24 nM
same,GI50,"HCT-15; 192 h, 8 Days",26.7 nM
same,GI50,"SK-MEL-28; 96 h, 4 Days",0.76 nM
same,GI50,"SK-MEL-28; 144 h, 6 Days",0.2 nM
same,GI50,"SK-MEL-28; 192 h, 8 Days",0.01 nM
same,GI50,"BT-549; 96 h, 4 Days",1.76 nM
same,GI50,"BT-549; 144 h, 6 Days",1.2 nM
same,GI50,"BT-549; 192 h, 8 Days",0.18 nM
same,GI50,"PC-3; 96 h, 4 Days",0.78 nM
same,GI50,"PC-3; 144 h, 6 Days",0.47 nM
same,GI50,"PC-3; 192 h, 8 Days",0.27 nM
